Test results published in patent US20250073346A1, “PHARMACEUTICAL COMBINATIONS” (Oxford Bio Therapeutics Ltd, priority 2021, published 2025).
Each block holds one molecule with its values, some of them ahead of it.

Legend:
HT-29 cells = test: Platin after 72 hr LY75_A1 pre-treatment, cell viability (cell-titer glo); format: cell-based
Method: (§1) Cells were diluted in excess media and spun down. […] The plate was Incubated for 24 hr at 37° C. to allow cells to adhere and become acclimatized prior to addition of drug. The plates were incubated for 72 hr at 37° C. After 72 hr, the media was removed and replaced with either cisplatin or oxaliplatin at various concentrations (see figures) in 100 ul media before incubation for a further 48 hr.
(§2) After the incubation period, the plate was removed from the incubator and left at room temperature for 30 minutes. Media was removed from the plate which was washed twice with 200 ul PBS. The plate was then treated with cell-titer glo (CTG) following the manufacturer's protocol (Promega, Catalog No. G9681). Briefly, 200 ul CTG solution/well was added before incubating at RT on a plate rotator at low speed for 2 min before incubation in the dark for a further 10 min.
(§3) The plates were removed and the viability under the various conditions calculated.

N87 cells = test: as above; format: cell-based; details: for reduction of IC50 in cells pre-treated with LY75_A1: pre-treated with LY75_A1 for 72 hours
Method: as §1, §2, §3

[1] = test system: NCI-N87 gastric cancer xenograft; test: Subcutaneous NCI-N87 gastric cancer xenograft model; format: in vivo, mouse
Method: The animals were fed ad libitum water (reverse osmosis, 1 ppm CI) and NIH 31 Modified and Irradiated Lab Diet® consisting standard rodent chow. The mice were housed on Crushed corncob bedding, autoclaved; changed weekly on a 12-hour light cycle at 20-22° C. (68-72° F.) and 40-60% humidity.
The NCI-N87 tumor cells were maintained in vitro with RMPI 1640 medium supplemented with 10% fetal bovine serum at 37° C. in an atmosphere of 5% CO2 in air. The cells in exponential growth phase were harvested and quantitated by cell counter before tumor inoculation.
Each mouse was inoculated subcutaneously in the right upper flank region with NCI-N87 tumor cells (1×10^7) in PBS mixed with matrigel (1:1) for tumor development. After tumor inoculation, the animals were checked daily for morbidity and mortality. During routine monitoring, the animals were checked for any effects of tumor growth and treatments on behavior such as mobility, food and water consumption, body weight gain/loss (Body weights would be measured two times per week after randomization), eye/hair matting and any other abnormalities. Mortality and observed clinical signs were recorded for individual animals in detail.
Tumor volumes were measured two times per week after randomization in two dimensions using a caliper, and the volume was expressed in mm3 using the formula: V=(L×W×W)/2, where V is tumor volume, L is tumor length (the longest tumor dimension) and W is tumor width (the longest tumor dimension perpendicular to L). Dosing as well as tumor and body weight measurements were conducted in a Laminar Flow Cabinet.
The randomization started when the mean tumor size reached approximately 183 mm3. […]
Each animal was euthanized for tumor progression (TP) when its tumor reached the […] endpoint. The time to endpoint (TTE) for each mouse was calculated with the following equation: TTE=log (endpoint volume)−b/m. […] Any animal determined to have died from treatment-related (TR) causes was to be assigned a TTE value equal to the day of death. […]
Treatment outcome was evaluated from tumor growth delay (TGD), which was defined as the increase in the median TTE for a treatment group compared to the control group: TGD=T−C expressed in days or as a percentage of the median TTE for the control group % TGD=T−C/C×100 where, T=median TTE for a treatment group, C=median TTE for the control group.
Animals were weighed daily on Days 1-5, and then twice weekly until the end of the study. Group mean BW nadirs were determined before more than 50% of the animals in a group exited the study. The mice were observed frequently for health and overt signs of any adverse TR side effects, and clinical observations were recorded, if observed. […]

HPAFII cells = test: Platin after 72 hr LY75_A1 pre-treatment, cell viability (cell-titer glo); format: cell-based; details: for viability of cells: HPAFII, ~50 uM oxaliplatin
Method: as §1, §2, §3

[2] = target: T1, LY75 (DEC-205), lymphocyte antigen 75 (human, UniProt O60449 28-1722); test: immunohistochemistry on FFPE human tumour tissue sections
T1 construct: Endogenous LY75 in human tumour tissue sections and on human tumour cell lines
Method: (§4) Using the human monoclonal antibodies specific to LY75, immunohistochemistry was performed on FFPE HT-29 and A549 cell pellets, FFPE non-Hodgkin's lymphoma and pancreatic cancer arrays, and fresh frozen lymphoma/leukaemia tumours, ovarian cancer, pancreatic cancer, and breast cancer sections and a normal tissue array.
(§5) The LY75 antigen was retrieved using microwave heat, high power until boiling then low power for 10 minutes in 50 mL 1×citrate buffer in a Coplin jar. Slides were then left to cool to room temperature for a further 15 min, then washed in tap water, 3 minutes. Circles were drawn around each tissue section/TMA with a hydrophobic barrier pen and slides were then washed 3 times in PBS, 3 minutes each wash.
Meanwhile, endogenous tissue peroxidase activity was blocked by incubating tissues with peroxidase suppressor for 5-10 minutes at RT in a humidified chamber. Slides were then washed in PBS 3×3 minutes each wash. Tissues were incubated in SFPB for 30 minutes at room temperature in a humidified chamber. Final staining complexes were applied to each tissue section and/or microarray, and the slides were incubated for 30 min at room temperature in a humidified chamber. Slides were then washed once in PBS and once in PBST (PBS+0.125% Tween-20), 3 minutes each wash. […]

LY75 = target: T2, LY75 (Homo sapiens, UniProt O60449); test: Immunohistochemistry with anti-LY75 antibody on FFPE Triple Negative breast cancer samples
T2 construct: tissue US Biomax Inc. or Origene; host or cells: FFPE triple negative breast cancer tissue sections/arrays
Method: as §4
FFPE slides were deparaffinised in xylene (2×3 minutes) then rehydrated through 1:1 xylene: 100% ethanol (1×3 minutes), 100% ethanol (2×3 minutes), 95% ethanol (1×3 minutes), 70% ethanol (1×3 minutes), 50% ethanol (1×3 minutes), and tap water (1×3 minutes).
as §5
The primary anti-LY75 antibody was diluted in serum free protein block (SFPB) to obtain a solution with a concentration 20-fold greater than the final desired concentration (20 μg/mL for 1 μg/mL final). The secondary antibody, goat anti-human immunoglobulin G (IgG) antigen-binding fragment (Fab), was prepared similarly in SFPB to create a solution of equal concentration. […]

[3] = HT29 cells pretreated with 0.5 nM LY75_A1 for 72 hours
[4] = HT29 cells pretreated with 2 nM LY75_A1 for 72 hours
[5] = N87 cells pretreated with 1 nM LY75_A1 for 72 hours
[6] = N87 cells pretreated with 10 nM LY75_A1 for 72 hours
[7] = single agent, single i.v. dose day 1 (OBT076 1 mg/kg; Oxaliplatin 5 mg/kg)

T2 sequence (O60449 28-1722): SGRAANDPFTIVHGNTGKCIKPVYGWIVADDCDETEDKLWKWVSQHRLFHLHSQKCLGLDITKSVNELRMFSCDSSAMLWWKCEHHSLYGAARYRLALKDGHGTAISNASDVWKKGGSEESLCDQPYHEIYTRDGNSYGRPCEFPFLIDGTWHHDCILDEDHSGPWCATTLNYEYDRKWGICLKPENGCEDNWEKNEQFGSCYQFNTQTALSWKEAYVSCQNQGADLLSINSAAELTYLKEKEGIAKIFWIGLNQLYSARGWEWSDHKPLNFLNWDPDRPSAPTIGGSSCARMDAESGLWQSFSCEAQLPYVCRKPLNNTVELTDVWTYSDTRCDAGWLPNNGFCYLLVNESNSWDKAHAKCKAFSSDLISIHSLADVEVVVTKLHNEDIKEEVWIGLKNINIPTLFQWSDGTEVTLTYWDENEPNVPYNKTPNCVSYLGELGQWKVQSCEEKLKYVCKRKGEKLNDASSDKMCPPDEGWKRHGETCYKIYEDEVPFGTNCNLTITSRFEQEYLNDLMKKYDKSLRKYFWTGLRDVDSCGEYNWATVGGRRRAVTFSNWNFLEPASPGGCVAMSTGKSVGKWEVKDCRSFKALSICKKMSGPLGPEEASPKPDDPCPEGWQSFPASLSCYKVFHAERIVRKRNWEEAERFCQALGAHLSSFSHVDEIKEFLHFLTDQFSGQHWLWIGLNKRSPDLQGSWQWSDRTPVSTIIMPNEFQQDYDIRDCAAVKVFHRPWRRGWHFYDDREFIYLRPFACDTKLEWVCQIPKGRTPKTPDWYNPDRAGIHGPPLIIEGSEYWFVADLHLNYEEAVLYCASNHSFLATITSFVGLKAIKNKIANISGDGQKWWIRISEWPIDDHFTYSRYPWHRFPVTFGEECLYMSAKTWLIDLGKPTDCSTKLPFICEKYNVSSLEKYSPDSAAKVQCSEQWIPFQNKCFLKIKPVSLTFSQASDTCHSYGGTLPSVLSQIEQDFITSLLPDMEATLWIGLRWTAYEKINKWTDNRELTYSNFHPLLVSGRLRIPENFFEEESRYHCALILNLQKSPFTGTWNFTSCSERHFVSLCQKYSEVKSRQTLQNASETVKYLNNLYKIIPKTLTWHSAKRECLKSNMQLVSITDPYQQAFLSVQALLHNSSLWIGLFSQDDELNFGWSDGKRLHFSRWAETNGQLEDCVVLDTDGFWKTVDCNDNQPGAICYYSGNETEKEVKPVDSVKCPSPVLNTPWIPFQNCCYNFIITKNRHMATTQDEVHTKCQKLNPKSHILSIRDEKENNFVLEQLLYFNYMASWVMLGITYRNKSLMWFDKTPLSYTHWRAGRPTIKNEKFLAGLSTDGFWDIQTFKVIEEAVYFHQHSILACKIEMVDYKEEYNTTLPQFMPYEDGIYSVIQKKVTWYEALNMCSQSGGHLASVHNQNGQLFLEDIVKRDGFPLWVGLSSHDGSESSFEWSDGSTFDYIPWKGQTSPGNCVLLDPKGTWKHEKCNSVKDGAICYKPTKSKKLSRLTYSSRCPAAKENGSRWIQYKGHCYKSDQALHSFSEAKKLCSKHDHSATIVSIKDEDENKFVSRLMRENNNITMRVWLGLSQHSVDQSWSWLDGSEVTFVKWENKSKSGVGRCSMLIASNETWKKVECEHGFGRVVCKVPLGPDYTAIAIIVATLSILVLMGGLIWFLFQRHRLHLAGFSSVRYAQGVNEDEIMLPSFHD
T1 sequence (O60449 28-1722 limits assumed): as the sequence (O60449 28-1722) above

Molecule: N.N.[Cl][Pt][Cl] [Cisplatin, cis-diamminedichloroplatinum(II)]
IC50 (HT-29 cells; [3]): 44.6 µM | IC50 (HT-29 cells; [4]): 18.7 µM | IC50 (HT-29 cells; HT29 cells, cisplatin alone, 48 hr): 44.7 µM | viability of cells (HT-29 cells; HT-29, ~10 uM cisplatin, not pre-treated, FIG. 5B): no cell death | viability of cells (HT-29 cells; HT-29, ~10 uM cisplatin, pre-treated with 2 nM LY75_A1, FIG. 5B): significantly lower than those which are not pre-treated | viability of cells (N87 cells; N87, ~3 uM cisplatin, not pre-treated, FIG. 5E): no cell death | viability of cells (N87 cells; N87, ~3 uM cisplatin, pre-treated with 1 or 10 nM LY75_A1, FIG. 5E): significantly lower than those which are not pre-treated | IC50 (N87 cells; [5]): 3.5 µM | IC50 (N87 cells; [6]): 0.9 µM | IC50 (N87 cells; N87 cells, cisplatin alone, 48 hr): 10 µM | reduction of IC50 in cells pre-treated with LY75_A1 (N87 cells; N87 cells): 10 fold

Molecule: O=C1[O][Pt]2([NH][C@@H]3CCCC[C@H]3[NH]2)[O]C1=O [Oxaliplatin]
mice that had died ([1]; by Day 81, single agent alone): ~71% | TGI on day 60 [1, 7]: 0.49% | Tumor Size (mm^3) on day 60 [1, 7]: 1969.92 +/− 258.93 mm^3 | % Survival ([1]; to Day 81, single agent, single i.v. dose day 1 (OBT076 1 mg/kg; Oxaliplatin 5 mg/kg)): 28.57% | IC50 (HT-29 cells; [3]): 55.1 µM | IC50 (HT-29 cells; [4]): 32.7 µM | IC50 (HT-29 cells; HT29 cells, oxaliplatin alone, 48 hr): 66.8 µM | viability of cells (HT-29 cells; HT-29, ~10 uM oxaliplatin, not pre-treated, FIG. 5A): no cell death | viability of cells (HT-29 cells; HT-29, ~10 uM oxaliplatin, pre-treated with 2 nM LY75_A1, FIG. 5A): significantly lower than those which are not pre-treated | viability of cells (N87 cells; N87, ~10 uM oxaliplatin, not pre-treated, FIG. 5D): no cell death | viability of cells (N87 cells; N87, ~10 uM oxaliplatin, pre-treated with 1 or 10 nM LY75_A1, FIG. 5D): significantly lower than those which are not pre-treated | IC50 (N87 cells; [5]): 14.1 µM | IC50 (N87 cells; [6]): 1 µM | IC50 (N87 cells; N87 cells, oxaliplatin alone, 48 hr): 44.5 µM | reduction of IC50 in cells pre-treated with LY75_A1 (N87 cells; N87 cells): 44 fold | IC50 (HPAFII cells; HPAFII cells pretreated with 1 nM LY75_A1 for 72 hours): 85.4 µM | IC50 (HPAFII cells; HPAFII cells pretreated with 3 nM LY75_A1 for 72 hours): 62.1 µM | IC50 (HPAFII cells; HPAFII cells pretreated with 10 nM LY75_A1 for 72 hours): 58.8 µM | IC50 (HPAFII cells; HPAFII cells, oxaliplatin alone, 48 hr): ~256 µM | reduction of IC50 in cells pre-treated with LY75_A1 (HPAFII cells; HPAFII cells, pre-treated with LY75_A1 for 72 hours): approximately 4 fold | viability of cells (HPAFII cells; not pre-treated, FIG. 5C): no cell death | viability of cells (HPAFII cells; pre-treated with all concentrations (1, 3, 10 nM) of LY75_A1, FIG. 5C): significantly lower than those which are not pre-treated

binding result [2]: binds | sections exhibited robust (+++) staining (LY75): 55% | sections showed positive staining (LY75): 77%
B1: LY75_A1 monoclonal antibody (antibody, human IgG1, kappa, V domains shown)
VH: EVQLVESGGGLVKPGGSLRLSCAASGFTYSNAWMSWVRQAPGKGLEWVGRIKSKTDGGTTDYAAPVQGRFTISRDDSKNTLYLQMNSLKTEDTAVYYCTIFGVVSFDYWGQGTLVTVSS
VL: DVQMTQSPSSLSASVGDRVTITCRASQSISDYLSWYQQRPGKAPNLLIYAASNLKTGVPSRFSGSGSGTDFTLTISTLQPEDFATYYCQQSYRSPWTFGQGTKVEIKR
notes: Human antibody, detected with goat anti-human IgG Fab in the immunohistochemistry; also called anti-LY75_A1
